According to PubChem BioAssay AID602464 (Sanford-Burnham Center for Chemical Genomics, 2012):
pIC50: −log10 of the molar value. Active and inactive are the calls of the source. Cut-off read from the data, not from the text of the source: active = IC50 below about 20 µM; inactive = the rest.

What follows are compounds tested on Gli-responsive luciferase reporter cells, SUFU pathway antagonism (assay: Gli-SUFU pathway antagonists, dose response, cell-based, luciferase luminescence, uHTS hits (AID 602464)).
With `CC1CN(S(=O)(=O)c2ccc(C(=O)Nc3nc(-c4cc5ccccc5o4)cs3)cc2)CC(C)O1` (configuration not stated) the pIC50 was 5.90. `O=C(Cn1cnc2ccccc21)Nc1cccc(S(=O)(=O)N2CCCC2)c1` showed a pIC50 of 5.04. `CCn1c(=NC(=O)CS(=O)(=O)c2ccccc2)sc2cccc(OC)c21` showed a pIC50 of 5.40. For `Cc1cccc(CCN2C(N(C)C)=NC[C@@H]2CC(C)C)c1`, the pIC50 was 4.99. Compound `O=C(NCCc1cccc(Cl)c1)c1ccc(OC2CCN(Cc3ccccn3)CC2)cc1` has a pIC50 of 5.11. `Cc1cc(/C=C2/SC(=S)N(c3ccc([N+](=O)[O-])cc3)C2=O)c(C)n1-c1cccnc1` showed a pIC50 of 6.18. In the case of `Cc1csc2ncnc(NCCc3ccccn3)c12`, the pIC50 was 5.15. With `Cc1ccc(S(=O)(=O)N2CCN(C(=O)c3ccc(S(=O)(=O)N4CCCC4)cc3)CC2)cc1` the IC50 was > 20 µM (inactive). `CC1=CC(C)C2(COC(c3ccc[n+](C)c3)OC2)C(C)C1` (configuration not stated) gave a pIC50 of 4.75. `CCCc1nc(SCC(=O)Nc2nnc(CC)s2)c2c(=O)n(C)c(=O)n(C)c2n1` gave a pIC50 of 5.07. With `N=c1c(-c2nc3ccccc3[nH]2)cc(C(=O)c2ccco2)nn1-c1ccccc1` the IC50 was > 20 µM (inactive). Compound `CCOc1ccc(-c2cc(C)[n+](CCO)c(-c3ccc(OCC)cc3)c2)cc1` has a pIC50 of 4.83. Work on `Cc1ccc(O)c(NC(=O)COc2cc(C)ccc2C)c1` yielded a pIC50 of 5.48. With `CCC(C(=O)NCCC(C)C)n1ccc2cc(S(=O)(=O)N3CCCCC3)ccc21` (configuration not stated) the pIC50 was 5.05. In the case of `CC(NC(=O)c1cc2c(=O)n3ccccc3nc2n(CC2CCCO2)c1=N)c1ccccc1` (configuration not stated), the IC50 was > 20 µM (inactive). Compound `O=C(N[C@@H]1C/C=C\C[C@@H](CC(=O)N(CCO)Cc2ccccc2)C(=O)NCCOC1=O)OCC1c2ccccc2-c2ccccc21` has a pIC50 of 4.90. Work on `CCn1c(/C=C/Nc2ccccc2)[n+](CC)c2cc(Cl)c(Cl)cc21` yielded a pIC50 of 5.10. `CCOc1ccc(-c2nc(CSCC(=O)NC3CC3)c(C)o2)cc1` gave a pIC50 of 6.42. For `CC[C@@H](O)C[C@H]1CCC[C@@]2(C[C@@H]3OC(=O)/C=C/[C@@](C)(O)[C@@H](O)[C@H](C)[C@@H](O)[C@H](OC4CCC(N(C)C)C(C)O4)[C@@H](O)[C@](C)(O)CCCCC/C=C/[C@@H]4CC(C)(C)O[C@@]4(O)C[C@H](O2)[C@H]3C)O1` (some centres not stated), the pIC50 was over 8.01. `COc1ccc(-c2c[n+](CC(=O)c3ccccc3)c3n2CCCCC3)cc1` was tested, and the pIC50 was 4.85. `c1ccc(Cn2c(-c3ccccc3)c[n+]3c2SCCC3)cc1` gave a pIC50 of 5.18. Compound `Brc1ccc(-c2csc(N3CCCCCC3)n2)cc1` has a pIC50 of 5.99. `CC1CCCCC1NS(=O)(=O)c1ccc(S(=O)(=O)NCc2ccncc2)cc1` (configuration not stated) gave a pIC50 of 5.25. `CCOc1ccc(-n2c(O)c(/C=N/Nc3nc(C)cc(C)n3)c3ccccc3c2=O)cc1` showed a pIC50 of 5.15. Compound `CNS(=O)(=O)c1cccc(C(=O)OCC(=O)c2cc(C)n(CC3CCCO3)c2C)c1` (configuration not stated) has a pIC50 of 6.13. Compound `CN(CCOc1ccc(Cl)cc1)C(=O)c1cccc(S(=O)(=O)N2CCN(c3ccc(F)cc3)CC2)c1` has a pIC50 of 5.25. `COc1ccc(CC(=O)Nc2cccc(S(=O)(=O)N3CCCCCC3)c2)cc1OC` gave a pIC50 of 5.10. For `CCN(CC)S(=O)(=O)c1ccc(C)c(NC(=S)N2CCN(Cc3ccc4c(c3)OCO4)CC2)c1`, the pIC50 was 4.91. Work on `O=C(Cn1cc(C(=O)C2CC2)c2ccccc21)Nc1ccccc1Cl` yielded a pIC50 of 4.95. In the case of `CCOP(=O)(CCP(=O)(OCC)OCC)OCC.C[CH2][Sn]([Cl])([Cl])[CH2]C`, the pIC50 was 5.20. With `CC(=O)c1ccc(-n2cc(-c3ccc(C(C)(C)C)cc3)[n+]3c2SCCC3)cc1` the pIC50 was 5.01. Work on `CCOC(=O)CSc1c(-c2cccs2)[nH]c2ccccc12` yielded a pIC50 of 5.43. Compound `NC(=O)c1c(-c2ccc(Cl)cc2Cl)csc1NC(=O)Cc1ccccc1` has a pIC50 of 5.10. In the case of `COc1ccccc1CCNC(=O)c1cc(-c2ccncc2)nc2ccc(Br)cc12`, the IC50 was > 20 µM (inactive). Compound `COCCNc1nc2c(c(=O)n(C)c(=O)n2C)n1Cc1cccc(C(F)(F)F)c1` has a pIC50 of 5.45. Work on `CCCc1c(CC)c(=N)c2ccccc2n1C` yielded a pIC50 of 4.89. For `CC(=O)c1ccc(N2CCN(c3ccc(C(F)(F)F)cn3)CC2)cc1`, the pIC50 was 5.05. Work on `COc1ccc(NS(=O)(=O)c2ccc(N3CCOCC3)c(N)c2)cc1` yielded a pIC50 of 5.29. In the case of `Cc1ccc(OCCOC(=O)c2cc(S(=O)(=O)N3CCCCC3)ccc2N2CCOCC2)cc1`, the IC50 was > 20 µM (inactive). With `O=C(NC(c1cccnc1)C(F)(F)F)c1cc(COc2ccc3c(c2)CCCC3)on1` (configuration not stated) the pIC50 was 4.97. `CCCCCCCOc1ccc(OC(=O)c2ccncc2)cc1` showed a pIC50 of 6.02. For `O=C(N[C@@H]1C/C=C\C[C@@H](CC(=O)N(CCO)Cc2ccccc2)C(=O)NC[C@H](c2ccccc2)OC1=O)OCC1c2ccccc2-c2ccccc21`, the pIC50 was 5.08. In the case of `Cc1ccc(S(=O)(=O)NCCC2=CCCCC2)cc1C(N)=O`, the pIC50 was 5.06. With `CCCn1c(SCC(=O)Nc2nc(-c3ccc(OC)cc3)cs2)nc2c1c(=O)n(C)c(=O)n2C` the IC50 was > 20 µM (inactive). With `COCCNc1nc2c(c(=O)n(C)c(=O)n2C)n1Cc1cccc(C)c1` the pIC50 was 5.14. Compound `Cc1ccc(NC(=O)/C=C/c2ccco2)cc1S(=O)(=O)N1CCCCCC1` has a pIC50 of 5.67. With `CCCCSc1nc2sc3c(c2c(=O)n1-c1ccc(C)cc1)CCN(C)C3` the pIC50 was 4.75. With `Cc1ccc(S(=O)(=O)N2CCN(C(=O)C3CCN(c4ncnc5sc(C)c(C)c45)CC3)CC2)c(C)c1` the pIC50 was 5.12. For `CC(C)Cn1c(N)c(C(=O)COC(=O)C2Cc3ccccc3CN2S(C)(=O)=O)c(=O)n(C)c1=O` (configuration not stated), the IC50 was > 20 µM (inactive). With `COc1ccc(C(=O)C[n+]2cc(-c3ccc(OC)cc3)n3c2CCCC3)cc1` the pIC50 was 5.19. `CC(Sc1nc2ccccc2c(=O)n1C)C(=O)NC1CCCCC1C` (configuration not stated) showed a pIC50 of 4.94. `COC(=O)C1=C(c2cc3ccccc3o2)C[C@@H]2CC[C@H]1N2C(=O)N1CCC(C)CC1` gave a pIC50 of 4.79. Work on `CCc1ccc(CN(C)C(=O)c2cc(COc3cccc4cnccc34)on2)cc1` yielded a pIC50 of 5.23. `O=C(Nc1ccccc1)C1=C[C@@H](C2CCCCC2)C[C@@H](OCCCCO)O1` was tested, and the pIC50 was 5.71. `CCCCCCC[N+](CC)(CC)CCCCc1ccc(Cl)cc1` showed a pIC50 of 5.25. `COc1ccc(NS(=O)(=O)c2cccc(NC(=O)c3ccc(S(=O)(=O)N4CCCCCC4)cc3)c2)cc1` gave a pIC50 of 5.12. Compound `Cc1ccc(NCC(=O)Nc2cccc(S(=O)(=O)N(C)C)c2)cc1S(=O)(=O)N1CCCCCC1` has a pIC50 of 4.84. In the case of `COc1ccccc1-n1c(-c2ccccc2)c[n+]2c1CCc1ccccc1-2`, the pIC50 was 5.44. Compound `CCOC(=O)c1ccc(NC(=O)Cn2cnc3cc(C)c(C)cc32)cc1` has a pIC50 of 5.56. For `O=C(c1ccc(Cl)cc1)N1CCN(c2ccnc3cc(Cl)ccc23)CC1`, the pIC50 was 5.52. For `O=C(C1CCCCC1)N1CCN(c2ccnc3cc(Cl)ccc23)CC1`, the pIC50 was 5.37. For `COc1ccc(CN(C)C(=O)c2cccc(NC(=O)CC3SC(N4CCCCC4)=NC3=O)c2)c(OC)c1` (configuration not stated), the pIC50 was 4.89. `C[n+]1c2n(c3ccccc31)N=C(c1ccccc1)CS2` was tested, and the pIC50 was 5.19. `COc1ccccc1CCNC(=O)C(=O)NCCC1CCCCN1S(=O)(=O)c1cccs1` (configuration not stated) was tested, and the pIC50 was 5.06. In the case of `CCCN(CCC)CCNC(=O)c1cc2c(=O)n(C)c3ccccc3c2n1C`, the IC50 was > 20 µM (inactive). With `O=C(C[C@H]1C/C=C\C[C@H](NC(=O)OCC2c3ccccc3-c3ccccc32)C(=O)OC[C@@H]2CCCN2C1=O)N[C@H](CO)Cc1ccccc1` the IC50 was > 20 µM (inactive). Work on `O=C(Cc1ccc(Cl)cc1Cl)Nc1ccncc1` yielded a pIC50 of 4.99. Work on `O=C(NCCNc1ccnc2cc(Cl)ccc12)c1ccccc1F` yielded a pIC50 of 5.09. Work on `C#CC[N+](C)(C)CCCCCCCCCCCC` yielded a pIC50 of 5.60. For `CC(=O)c1c(C)[nH]c(C(=O)OCC(=O)Nc2cccc(S(=O)(=O)N3CCCC3)c2)c1C`, the pIC50 was 5.19. `CC(C)C[C@H]1CN=C(N(C)C)N1CCCCc1ccccc1` gave a pIC50 of 5.10. Compound `CCCCc1ccc(NC(=O)C(=O)NCCN2CCN(Cc3ccc([N+](=O)[O-])cc3)CC2)cc1` has a pIC50 of 5.08. Compound `CCOC(=O)N1CCN(C(=O)c2ccc(CSc3ccc(Cl)cc3)cc2)CC1` has a pIC50 of 4.97. `O=C(c1cnc(N2CCN(c3ccccn3)CC2)c2ccccc12)N1CCN(c2cccc(Cl)c2)CC1` was tested, and the pIC50 was 4.94. Compound `COc1ccc2c(c1)c(C)cc[n+]2Cc1ccccc1` has a pIC50 of 5.41. For `Cc1ccc(C)c(N2CC(O)(c3cccs3)[N+]3=C2CCCC3)c1` (configuration not stated), the pIC50 was 4.98. Compound `CCOc1ccc(NC(=S)NNc2ccnc3cc(Cl)ccc23)cc1` has a pIC50 of 5.27. With `COCCNC(=O)CSCc1nc(-c2ccc(SC)cc2)oc1C` the pIC50 was 5.07. Compound `C(#Cc1ccccc1)C[N+]1(CC#Cc2ccccc2)CCCC1` has a pIC50 of 5.28. Work on `O=C(c1cccc(S(=O)(=O)N2CCN(c3ccccc3)CC2)c1)N1CCCC(C(F)(F)F)C1` (configuration not stated) yielded a pIC50 of 5.10. In the case of `CC1CCC(NC(=O)c2cccc(S(=O)(=O)N3CCN(c4ccccc4)CC3)c2)CC1` (configuration not stated), the pIC50 was 5.00. Work on `CCCCOCCCNc1ncnc2c1[nH]c1ccccc12` yielded a pIC50 of 5.50. `CC(=O)/C(=N\Nc1ccc(Cl)cc1Cl)Sc1cccc2cccnc12` was tested, and the pIC50 was 5.95. `Brc1ccc(-[n+]2c(-c3ccccc3)cc(-c3ccccc3)cc2-c2ccccc2)cc1` was tested, and the pIC50 was 5.32. For `COc1ccc(NS(=O)(=O)c2ccc(N3CCN(CCO)CC3)c([N+](=O)[O-])c2)cc1`, the pIC50 was 5.06. `c1ccc2c(c1)OCC(CNc1ncnc3sccc13)O2` (configuration not stated) gave a pIC50 of 6.05. Compound `COC(=O)c1cc(S(=O)(=O)N2CCC(c3cc(OC)ccc3OC)C2)c[nH]1` (configuration not stated) has a pIC50 of 5.00. `O=C(Cn1c(-c2ccccc2)c[n+]2ccsc12)c1ccc(Br)cc1` was tested, and the IC50 was > 20 µM (inactive). `COc1ccc(NC(=S)N2CCC(Cc3ccccc3)CC2)cc1` was tested, and the pIC50 was 4.78. Compound `COc1nnc(-c2ccc(N3CCCCC3)c(N)c2)c2ccccc12` has a pIC50 of 5.04. For `Cc1sc2ncnc(NCC3COc4ccccc4O3)c2c1C` (configuration not stated), the pIC50 was 5.29. With `CC(C)(C)[C@H]1COC(=O)[C@H](NC(=O)OCC2c3ccccc3-c3ccccc32)C/C=C\C[C@@H](CC(=O)N[C@@H](CO)Cc2ccccc2)C(=O)N1` the pIC50 was 4.92. For `Cc1nn(C)c(C)c1/C=C/C(=O)c1ccc(Cl)cc1Cl`, the pIC50 was 5.12. In the case of `Cc1c(CCOC(=O)C23CC4CC(CC(C)(C4)C2)C3)sc[n+]1Cc1ccccc1`, the IC50 was > 20 µM (inactive). With `COc1ccccc1NS(=O)(=O)c1cccc(C(=O)NC2CCN(Cc3ccccc3)CC2)c1` the IC50 was > 20 µM (inactive). Compound `Cc1nn(C)c(C(=O)NCc2ccc(Cl)cc2)c1Cl` has a pIC50 of 5.09. `c1ccc(C[n+]2cccc(-c3ccccc3)c2)cc1` showed a pIC50 of 4.97. Compound `CCCCn1c(SCc2c(C)noc2C)nc2cc(S(N)(=O)=O)ccc21` has a pIC50 of 5.38. With `Cn1c(=O)c2c(nc(NCCOc3ccc(C(C)(C)C)cc3)n2C)n(C)c1=O` the IC50 was > 20 µM (inactive). Work on `CC(=O)c1c(C)[nH]c(C(=O)OCC(=O)Nc2ccc(C)cc2[N+](=O)[O-])c1C` yielded a pIC50 of 6.27. `C=C(C)CSc1nc2sc3c(c2c(=O)n1C1CCCCC1)CCN(C)C3` gave a pIC50 of 5.06. `Cc1sc2ncnc(NCc3cccs3)c2c1C` showed a pIC50 of 5.09.
